Laboratory results published in publication PMC7819857, “Identification of Inhibitors of Integrin Cytoplasmic Domain Interactions With Syk” (Frontiers in Immunology, 2021).
Where two headings read alike, the source gives them in different places.

What was measured:
[1] = target: T1, integrin β3 cytoplasmic domain : tandem SH2 domains of Syk (GST-Syk(6-370)) (Homo sapiens, UniProt P43405); assay: AlphaScreen of integrin β3 cytoplasmic domain peptide binding to GST-Syk(6-370)
T1 construct: the tandem SH2 domains of Syk (residues 6-370); made in house; host or cells: E. coli BL21(DE3)
Procedure: (§1) The following HTS assay was developed to identify antagonists of the interaction between the integrin β3 cytoplasmic domain and the non-receptor tyrosine kinase Syk. […] ( Figure 1E ). Background signals in this assay were determined by omitting the integrin β3 peptide. Specific assay conditions are described in Table 1 . […] Then, either dimethyl sulfoxide control or compound was added, followed by biotinylated β3 peptide, and avidin-coated AlphaScreen donor beads. After a 4-h incubation period at room temperature (while protected from light), assays plates were read on an Infinite M1000 (Tecan) multiplate reader (Ex. 680/30; Em. 570/100).
Figure 3 Dose-response curves in primary and orthogonal screens. (A) AlphaScreen dose-response curves. […] Data are expressed as mean fluorescence (Fl520) ± range from duplicates, and one representative experiment of “n” performed is shown. (B) Orthogonal ELISA-based dose-response assays. […] Data are expressed as mean abs450 ± SEM from triplicate determinations, and one of three representative experiments is shown. (C) Ceftazidime inhibition of β3 peptide binding to Syk from THP-1 whole cell lysate. THP-1 cell lysate (100 ug) was treated with or without ceftazidime (Ctaz) before incubation with β3-coated avidin-agarose beads, and bound Syk was measured by western blot (example shown in inset). Blank beads served as a negative control. Equal β3 peptide loading was verified by probing blots with avidin-HRP (not shown).

[2] = target: T2, integrin β2 cytoplasmic domain : GST-Syk(6-370) (Homo sapiens, UniProt P43405); assay: AlphaScreen of integrin β2 cytoplasmic domain binding to Syk; details: read-out: antagonist activity against β2 (value without measure name), AlphaScreen
T2 construct: made in house; host or cells: E. coli BL21(DE3)
Procedure: as §1
Figure 4 Ceftazidime inhibition of integrin signaling. (A) Dose-response curves comparing ceftazidime antagonist activity against integrin β1A, β2, and β3 cytoplasmic domains binding to Syk as measured in AlphaScreen assays. […] Data are expressed as mean fluorescence (Fl520) ± the range from duplicate determinations. One of three experiments is shown. (B) Flow cytometric analysis of integrin α4β1, β2 subunit, αVβ3, and FcγRI (CD64) on THP-1 cells. Isotype control staining is shown as light gray histograms. Specific integrin staining is shown as darker gray histograms. […] One representative blot is shown (top), along with quantification of three separate experiments normalized to maximum Syk phosphorylation (bottom). Results are expressed as the mean ± SEM.

[3] = system: IL-1β gene expression in THP-1 cells; assay: Quantitative PCR of adhesion-dependent IL-1β expression in THP-1 cells; assay type: cell-based, human; details: 100 µM loaded cells, plated on CS-1, 4 h, qPCR
Procedure: THP-1 cells (2 × 10^6 per treatment group) that were glycerol loaded with ceftazidime (100 µM) or vehicle control (as described above) were plated on CS-1 peptide (10 µg/ml; 6-well plates) in serum-free RPMI-1640. Control cells were also kept in suspension. Plated and suspension cells were incubated for 4 h at 37°C. After incubation, the medium was removed, and RNA was isolated from cells with a Qiagen RNA extraction kit. After cDNA synthesis, quantitative real-time PCR was used to determine the relative gene expression levels of IL-1β and monocyte chemoattractant protein (MCP)-1 in THP-1 cells adhered to CS-1 in the presence of vehicle or ceftazidime relative to that of cells in suspension. The cycle threshold (Ct) results generated were analyzed according to the comparative Ct method (2^-ΔΔCt), where ΔCt is the difference between the CT value of target versus GAPDH control, and ΔΔCt is the difference between the ΔCt values of a given treated adherent cell sample and that of cells in suspension. Statistical differences between the two treatment groups for each target were determined by a two-tailed, unpaired Student t test using GraphPad Prism 7.04 statistical software.
Figure 6 Selective inhibition of integrin signaling by ceftazidime. […] Data are expressed as mean ± range from duplicate determinations. […] Kinase activity is expressed as percent of maximum signal. […]

IC50 ([1]; Figure 3A: biotinylated-b3(sh) peptide 30 nM, GST-Syk(6-370) 0.3 nM, read-out: IC50, AlphaScreen dose-response): 1.02 ± 0.2 µM | IC50 ([1]; abstract summary for both compounds, read-out: IC50 range, inhibition of integrin β-subunit cytoplasmic domain binding to the tandem SH2 domains of Syk): 1.02 to 4.9 µM | IC50 ([1]; as restated in the Discussion, read-out: IC50 in AlphaScreen assays): 1 µM | IC50 ([1]; biotinylated β chain peptide 30 nM, GST-Syk(6-370) 0.3 nM, Figure 4A, read-out: antagonist activity against β3 (value without measure name), AlphaScreen): 1.87 ± 0.2 µM | fold difference in inhibition, primary screen over false-positive counter screen (hit criterion) ([1]; re-sourced compounds, counter screen with biotinylated GST): greater than 3 fold | inhibition of fluorescent signal in the primary screen, re-sourced compounds (hit criterion) ([1]; re-sourced from a separate commercial source, 25 uM in text, 30 uM in legend of Figure 2C): greater than 50% | IC50 [2]: 1.53 ± 0.21 µM
Structure (SMILES): CC(C)(O/N=C(\C(=O)N[C@@H]1C(=O)N2C(C(=O)[O-])=C(C[n+]3ccccc3)CS[C@H]12)c1csc(N)n1)C(=O)O [ceftazidime]
adhesion-dependent induction of the expression of IL-1β [3]: significantly inhibited
